Measurements published in patent US20220041647A1, “ESTRA-1,3,5(10)-TRIENE COMPOUNDS CONDENSED IN POSITION 16(17) WITH A PYRAZOLE RING AS INHIBITORS OF 17-HSD1” (FORENDO PHARMA LTD, priority 2018, published 2022).

What was measured:
Type in all cases: biochemical
[1] = target: T1, recombinant human 17β-HSD1 (Homo sapiens, UniProt P14061); experiment: Inhibition of recombinant human 17β-HSD1 (estrone to estradiol conversion, HPLC/radioactivity); conditions: compound 100 nM; 30 nM estrone, 1 mM NADPH, 30 min RT
T1 construct: made in house; host or cells: Sd9 (Sf9) insect cells, baculovirus (Bac to Bac Expression System)
T1 sequence (P14061 1-328): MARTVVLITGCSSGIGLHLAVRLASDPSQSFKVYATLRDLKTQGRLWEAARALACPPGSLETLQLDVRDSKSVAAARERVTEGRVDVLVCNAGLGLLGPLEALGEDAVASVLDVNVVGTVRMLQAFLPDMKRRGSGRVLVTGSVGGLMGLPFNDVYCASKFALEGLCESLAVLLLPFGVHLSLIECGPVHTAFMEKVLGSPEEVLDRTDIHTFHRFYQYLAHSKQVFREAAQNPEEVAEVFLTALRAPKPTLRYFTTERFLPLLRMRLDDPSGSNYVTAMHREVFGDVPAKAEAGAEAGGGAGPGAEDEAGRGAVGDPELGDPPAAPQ
Procedure: 17β-HSD1 production and isolation: Recombinant baculovirus was generated by the “Bac to Bac Expression System” (Invitrogen). Recombinant bacmid was transfected to Sd9 insect cells using “Cellfectin Reagent” (Invitrogen). 60 h later cells were harvested; the microsomal fraction was isolated as described by Puranen, T. J., Poutanen, M. H., Peltoketo, H. E., Vihko, P. T. and Vihko, R. K. (1994) Site-directed mutagenesis of the putative active site of human 17 β-hydroxysteroid dehydrogenase type 1. Biochem. J. 304: 289-293. Aliquots were stored frozen until determination of enzymatic activity.
Assay—Inhibition of recombinant human 17β-HSD1: Recombinant protein (1 μg/ml) was incubated in 20 mM KH2PO4 pH 7.4 with 30 nM estrone (including 800 000 cpm/ml of ^3H-estrone) and 1 mM NADPH for 30 min at RT, in the presence of the potential inhibitor at concentrations 1 μM or 0.1 μM. Inhibitor stock solutions were prepared in DMSO. Final concentration of DMSO was adjusted to 1% in all samples. The enzyme reaction was stopped by addition of 10% trichloroacetic acid (final concentration). Samples were centrifuged in a microtiter plate at 4000 rpm for 10 min. Supernatants were applied to reverse phase HPLC on a Waters Symmetry C18 column, equipped with a Waters Sentry Guard column. Isocratic HPLC runs were performed at RT at a flow rate of 1 ml/min in acetonitrile:water 48:52 as running solvent. Radioactivity was monitored in the eluate by a Scintillation Analyzer. Total radioactivity for estrone and estradiol were determined in each sample and percent conversion of estrone to estradiol was calculated according to the following formula:
% conversion=100×{(cpm estradiol in sample with inhibitor)/[(cpm estrone in sample with inhibitor)+(cpm estradiol in sample with inhibitor)]}/{[(cpm estradiol in sample without inhibitor)/[(cpm estrone in sample without inhibitor)+(cpm estradiol in sample without inhibitor)]}.
(§1) Percent inhibition was calculated followingly: % inhibition=100−% conversion.

[2] = test system: HSD1 enzyme that is expressed in rabbit placenta tissue; experiment: Inhibition of E1 to E2 conversion in rabbit placenta tissue homogenate; conditions: compound 100 nM, 30 nM estrone, 1 mM β-NADPH, 30 min
Procedure: The assay is based on an enzymatic reaction where HSD1 enzyme that is expressed in rabbit placenta tissue converts its natural substance estrone (E1) to estradiol (E2) in the presence of a co-factor β-NADPH.
Homogenization of rabbit placenta tissue: Weight a piece of the frozen tissue into a Precellys ck28 bead tube. Add buffer solution (20 mM KH2PO4 with 1 mM EDTA, pH 7.4) in 1:2 ratio (e.g. 300 mg of tissue:600 μl reaction buffer solution). Insert the bead tubes to homogenizer and homogenize 2×30 s. 6000 rpm.
Centrifugated 5 min., 2600 rpm at +4° C. and collect supernatant. Aliquots of homogenate are stored in −80° C.
Assay—Inhibition of E1 to E2 conversion in rabbit placenta tissue: The reaction takes place in a buffer solution (20 mM KH2PO4 with 1 mM EDTA, pH 7,4), including appropriate amount of rabbit placenta homogenate, co-factor (1 mM β-NADPH), Substrate (30 nM estrone), labelled substrate as tracer (5 nM [^3H]-estrone), and the potential inhibitor at concentrations 1 μM or 0.1 μM. Inhibitor stock solutions were prepared in DMSO. Final concentration of DMSO was adjusted to 1% in all samples. During a 30-minute incubation part of the estrone is converted to estradiol. The reaction is stopped by lowering the pH to 1 with 10% trichloro acetic acid (TCA). The substrate and conversion products are analyzed by HPLC and a Scintillation counter analyzer. Total radioactivity for estrone and estradiol were determined in each sample and percent conversion of estrone to estradiol was calculated according to the following formula:
% conversion=100×{(cpm estradiol in sample with inhibitor)/[(cpm estrone in sample with inhibitor)+(cpm estradiol in sample with inhibitor)]}/{(cpm estradiol in sample without inhibitor)/[(cpm estrone in sample without inhibitor)+(cpm estradiol in sample without inhibitor)]}.
as §1

[3] = target: T2, recombinant human 17β-HSD2 (Homo sapiens, UniProt P37059); experiment: Inhibition of recombinant human 17β-HSD2 (estradiol to estrone conversion, HPLC/radioactivity); conditions: compound 1 μM; 50 nM estradiol, 1 mM NADH, 30 min RT
T2 construct: made in house; host or cells: Sd9 (Sf9) insect cells, baculovirus (Bac to Bac Expression System)
T2 sequence (P37059 1-387): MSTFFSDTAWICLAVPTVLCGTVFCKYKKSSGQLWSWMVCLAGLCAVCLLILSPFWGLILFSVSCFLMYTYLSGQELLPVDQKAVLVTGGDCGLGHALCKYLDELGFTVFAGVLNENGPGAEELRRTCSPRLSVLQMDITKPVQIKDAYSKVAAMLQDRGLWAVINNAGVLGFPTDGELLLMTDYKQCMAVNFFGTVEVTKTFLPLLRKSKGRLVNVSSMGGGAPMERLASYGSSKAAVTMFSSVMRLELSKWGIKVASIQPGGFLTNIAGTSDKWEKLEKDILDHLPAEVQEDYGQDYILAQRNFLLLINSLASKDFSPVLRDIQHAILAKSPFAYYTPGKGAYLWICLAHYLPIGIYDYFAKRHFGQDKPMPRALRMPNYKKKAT
Procedure: 17β-HSD2 production and isolation: Similarly to 173-HSD1 the Recombinant baculovirus was generated by the “Bac to Bac Expression System” (Invitrogen). Recombinant bacmid was transfected to Sd9 insect cells using “Cellfectin Reagent” (Invitrogen). 60 h later cells were harvested and supernatant were fractionated by the following protocol: • cells were dissolved into 40 ml of A-buffer (40 mM TRIS, pH8.0, 20% glycerol, 20 μM NAD, 0.4 mM PMSF, 150 mM NaCl, 0.5% dodecyl-β-maltoside+protease inhibitor cocktail) • cells were sonicated • lysate was incubated on ice for 15 min • lysate was centrifuged 5000 rpm 15 min, +4° C. • centrifugation of the supernatant 180 000 g 30 min, +4° C. • pellet was dissolved into 8 ml of A-buffer • not resuspended material was removed by centrifugation 5000 rpm 15 min, +4° C. • the clear supernatant was divided into 100 μl aliquots and were stored frozen until determination of enzymatic activity.
The amount of 173-HSD2 was analysed by immunoblotting and total protein concentration of each extract batch was determined.
Assay—Inhibition of recombinant human 17β-HSD2: Recombinant protein (4 μg/ml) was incubated in 20 mM KH2PO4 pH 8.5 with 50 nM estradiol (including 800 000 cpm/ml of ^3H-estradiol) and 1 mM NADH for 30 min at RT, in the presence of the potential inhibitor at concentrations 1 μM or 0.1 μM. Inhibitor stock solutions were prepared in DMSO. Final concentration of DMSO was adjusted to 1% in all samples. The enzyme reaction was stopped by addition of 10% trichloroacetic acid (final concentration). Samples were centrifuged in a microtiter plate at 4000 rpm for 10 min. Supernatants were applied to reverse phase HPLC on a Waters Symmetry C18 column, equipped with a Waters Sentry Guard column. Isocratic HPLC runs were performed at RT at a flow rate of1 ml/min in acetonitrile:water 48:52 as running solvent. Radioactivity was monitored in the eluate by a Scintillation Analyzer. Total radioactivity for estrone and estradiol were determined in each sample and percent conversion of estradiol to estrone was calculated according to the following formula:
% conversion=100×{(cpm estrone in sample with inhibitor)/[(cpm estradiol in sample with inhibitor)+(cpm estrone in sample with inhibitor)]}/{[(cpm estrone in sample without inhibitor)/[(cpm estradiol in sample without inhibitor)+(cpm estrone in sample without inhibitor)]}.
as §1

SMILES | inhibition at 0.1 µM [1] | Rabbit placenta inhibition % @100 nM [2] | inhibition at 1 µM [3]
COc1ccc(NC(=O)CC[C@@H]2c3c[nH]nc3[C@@]3(C)CCC4c5ccc(F)cc5CCC4C23)nn1 (stereo partly drawn) [Compound 108, 3-((8aS,12S)-4-fluoro-8a-methyl-1,2,6b,7,8,8a,10,12,12a,12b-decahydronaphtho[2′,1′:4,5]indeno[1,2-c]pyrazol-12-yl)-N-(6-methoxypyridazin-3-yl)propanamide] | 56% | 45% | -2%
CC(C)(C)c1cc(NC(=O)CC[C@@H]2c3c[nH]nc3[C@@]3(C)CCC4c5cccc(F)c5CCC4C23)no1 (stereo partly drawn) [Compound 213, N-(5-(tert-butyl)isoxazol-3-yl)-3-((8aS,12S)-3-fluoro-8a-methyl-1,2,6b,7,8,8a,10,12,12a,12b-decahydronaphtho[2′,1′:4,5]indeno[1,2-c]pyrazol-12-yl)propanamide] | 93% | 25% | 10%
C[C@]12CCC3c4cccc(F)c4CCC3C1[C@H](CCC(=O)NN1CCCCC1)c1c[nH]nc12 (stereo partly drawn) [Compound 69, 3-((8aS,12S)-3-fluoro-8a-methyl-1,2,6b,7,8,8a,10,12,12a,12b-decahydronaphtho[2′,1′:4,5]indeno[1,2-c]pyrazol-12-yl)-N-(piperidin-1-yl)propanamide] | 93% | 10% | 1%
Cc1cc(NC(=O)CC[C@@H]2c3c[nH]nc3[C@@]3(C)CCC4c5ccccc5CCC4C23)no1 (stereo partly drawn) [Compound 246, 3-((8aS,12S)-8a-methyl-1,2,6b,7,8,8a,10,12,12a,12b-decahydronaphtho[2′,1′:4,5]indeno[1,2-c]pyrazol-12-yl)-N-(5-methylisoxazol-3-yl)propanamide] | 80% | 19% | 15%
C[C@]12CCC3c4ccc(Cl)cc4CCC3C1[C@H](CCC(=O)Nc1cc(F)ccn1)c1c[nH]nc12 (stereo partly drawn) [Compound 129, 3-((8aS,12S)-4-chloro-8a-methyl-1,2,6b,7,8,8a,10,12,12a,12b-decahydronaphtho[2′1′:4,5]indeno[1,2-c]pyrazol-12-yl)-N-(4-fluoropyridin-2-yl)propanamide] | 84% | 28% | 8%
C[C@]12CCC3c4ccccc4CCC3C1[C@H](CCC(=O)NC1CCOCC1)c1c[nH]nc12 (stereo partly drawn) [Compound 153, 3-((8aS,12S)-8a-methyl-1,2,6b,7,8,8a,10,12,12a,12b-decahydronaphtho[2′,1′:4,5]indeno[1,2-c]pyrazol-12-yl)-N-(tetrahydro-2H-pyran-4-yl)propanamide] | 85% | 10% | 4%
COc1ccc(NC(=O)CC[C@@H]2c3c[nH]nc3[C@@]3(C)CCC4c5cccc(F)c5CCC4C23)nn1 (stereo partly drawn) [Compound 6, 3-((8aS,12S)-3-fluoro-8a-methyl-1,2,6b,7,8,8a,10,12,12a,12b-decahydronaphtho[2′,1′:4,5]indeno[1,2-c]pyrazol-12-yl)-N-(6-methoxypyridazin-3-yl)propanamide] | 93% | 86% | 8%
Cc1ccc(NC(=O)CC[C@@H]2c3c[nH]nc3[C@@]3(C)CCC4c5cccc(F)c5CCC4C23)nn1 (stereo partly drawn) [Compound 228, 3-((8aS,12S)-3-fluoro-8a-methyl-1,2,6b,7,8,8a,10,12,12a,12b-decahydronaphtho[2′,1′:4,5]indeno[1,2-c]pyrazol-12-yl)-N-(6-methylpyridazin-3-yl)propanamide] | 87% | 67% | 3%
CN1CCC(N2CCN(C(=O)CC[C@@H]3c4c[nH]nc4[C@@]4(C)CCC5c6cccc(F)c6CCC5C34)CC2)CC1 (stereo partly drawn) [Compound 75, 3-((8aS,12S)-3-fluoro-8a-methyl-1,2,6b,7,8,8a,10,12,12a,12b-decahydronaphtho[2′,1′:4,5]indeno[1,2-c]pyrazol-12-yl)-1-(4-(1-methylpiperidin-4-yl)piperazin-1-yl)propan-1-one] | 71% | 15% | 2%
CN(CC1CC1)C(=O)CC[C@@H]1c2c[nH]nc2[C@@]2(C)CCC3c4ccccc4CCC3C12 (stereo partly drawn) [Compound 174, N-(cyclopropylmethyl)-N-methyl-3-((8aS,12S)-8a-methyl-1,2,6b,7,8,8a,10,12,12a,12b-decahydronaphtho[2′,1′:4,5]indeno[1,2-c]pyrazol-12-yl)propanamide] | 88% | 14% | 10%
